Data as given in patent US6555128B2, “Feeds containing docosahexaenoic acid and/or conjugated docosahexaenoic acid, and a method for farming fishes by using such feeds” (Hokkaido University, priority 2000, dated 2003).

Tests used:
steelheads [1] = test: Feeding of steelheads: content and composition of the lipid in muscles; type: in vivo, Oncorhynchus, steelheads (rainbow trouts)
Experimental: (§1) Effects of ethyl docosahexaenoate and conjugated ethyl docosahexaenoate upon accumulation of the fat and the lipid composition were examined by feeding both ethyl esters to rainbow trouts.
(§2) Measuring conditions were as follows.
(§3) 1) Sample fish: Oncorhynchus, steelheads 3 months old after birth
(§4) 2) Farming condition: water temperature 10° C., each group 60 fishes
(§5) 3) Feed (fundamental feed: compounded feed for oriental trouts)
(§6) 1st group: fundamental feed +olive oil (5 wt %)
(§7) 2nd group: fundamental feed +olive oil (3 wt %) +ethyl docosahexaenoate (0.5 wt %)
(§8) 3rd group: fundamental feed +olive oil (4.5 wt %) +ethyl conjugated docosahexaenoate (0.5 wt %)
(§9) 4th group: fundamental feed +olive oil (3 wt %) +ethyl conjugated docosahexaenoate (2 wt %)
(§10) Conjugated ethyl docosahexaenoate used is obtained by isomerization of double bonds of ethyl docosahexaenoate in the presence of an alkali catalyst, and its composition consisted of 81.4% of conjugated ethyl docosahexaenoate and 18.6% of ethyl docosahexaenoate. More specifically, conjugated ethyl docosahexaenoate consisted of 57.4% of conjugated diene ester, 12.0% of conjugated triene ester, 12.0% of conjugated tetraene ester and 18.6% of ethyl docosahexaenoate. […]
(§11) Steelheads used, which were 3 months old after birth (average weight 0.82 g) and divided into four groups each consisting 60 steelheads, were farmed at a water temperature of about 10° C. for 21 weeks.
(§12) Effects of the feeds upon the internal organs and the lipid contents of the steelheads 21 weeks old after starting the farming were examined. The concrete lipid compositions in the internal organs are shown in Table 1, and the concrete lipid compositions in muscles shown in Table 2.

steelheads [2] = test: Feeding of steelheads: content and composition of the lipid in the internal organ; type: in vivo, Oncorhynchus, steelheads (rainbow trouts)
Experimental: as §1, §2, §3, §4, §5, §6, §7, §8, §9, §10, §11, §12

[3] = 0.5 wt % in feed, farmed 21 weeks, water 10° C.
[4] = 2nd to 4th groups versus feed with neither ester

CC/C=C\C/C=C\C/C=C\C/C=C\C/C=C\C/C=C\CCC(=O)OCC [ethyl docosahexaenoate]
Lipid composition (%) FFA, muscles (steelheads [1]; [3]): 1.7% | Lipid composition (%) PL, muscles (steelheads [1]; [3]): 21.0% | Lipid composition (%) SE, muscles (steelheads [1]; [3]): 0.7% | Lipid composition (%) TG, muscles (steelheads [1]; [3]): 76.6% | Lipid content (%) in muscles (steelheads [1]; [3]): 4.3% | lipid contents in the muscles compared with 1st group (FIG. 1) (steelheads [1]; [4]): lower lipid contents | Lipid composition (%) FFA, internal organ (steelheads [2]; [3]): 3.0% | Lipid composition (%) PL, internal organ (steelheads [2]; [3]): 5.8% | Lipid composition (%) SE, internal organ (steelheads [2]; [3]): 1.6% | Lipid composition (%) TG, internal organ (steelheads [2]; [3]): 89.6% | Lipid content (%) in the internal organ (steelheads [2]; [3]): 23.2% | lipid contents in the internal organs compared with 1st group (FIG. 1) (steelheads [2]; [4]): lower lipid contents
